The test system of one experiment is HMVEC. The experiment in a line: human microvascular endothelial (HMVEC) migration assay. The class given is cell-based. To be noted: Homo sapiens; Inhibition of HMVEC migration; 0.1 nM; activators 15 ng/mL bFGF/VEGF; 4 hours at 37 °C; compared to a positive control. Here is the method:
The human microvascular endothelial (HMVEC) migration assay was run according to the procedure of S. S. Tolsma, O. V. Volpert, D. J. Good, W. F. Frazier, P. J. Polverini and N. Bouck, J. Cell Biol. 122, 497-511 (1993).
The HMVEC migration assay was carried out using Human Microvascular Endothelial Cells-Dermal (single donor) and Human Microvascular Endothelial Cells, (neonatal). The BCE or HMVEC cells were starved overnight in DME containing 0.01% bovine serum albumin (BSA). Cells were then harvested with trypsin and resuspended in DME with 0.01 % BSA at a concentration of 1.5 X 10^6 cells per mL. Cells were added to the bottom of a 48 well modified Boyden chamber (Nucleopore Corporation, Cabin John, MD). The chamber was assembled and inverted, and cells were allowed to attach for 2 hours at 37 °C to polycarbonate chemotaxis membranes (5 µm pore size) that had been soaked in 0.01 % gelatin overnight and dried. The chamber was then reinverted, and test substances (total volume of 50 µL), including activators, 15 ng/mL bFGF/VEGF, were added to the wells of the upper chamber. The apparatus was incubated for 4 hours at 37 °C. Membranes were recovered, fixed and stained (Diff Quick, Fisher Scientific) and the number of cells that had migrated to the upper chamber per 3 high power fields counted. Background migration to DME + […] was subtracted and the data reported as the number of cells migrated per 10 high power fields (400X) or, when results from multiple experiments were combined, as the percent inhibition of migration compared to a positive control.
For `COc1ccc2[nH]cc(CCNC(=O)N[C@@H]3CCN(C(=O)c4ccc(C)nc4)C3)c2c1` [Example 29, N-[2-(5-methoxy-1H-indol-3-yl)ethyl]-N'-{(3R)-1-[(6-methyl-3-pyridinyl)carbonyl]-3-pyrrolidinyl}urea], the inhibition at 0.0001 µM was 92%.

For the molecule `Cc1ccc(C(=O)N2CC[C@@H](NC(=O)NCc3ccc(F)cc3F)C2)cn1` [Example 30, N-(2,4-difluorobenzyl)-N'-{(3R)-1-[(6-methyl-3-pyridinyl)carbonyl]-3-pyrrolidinyl}urea], at 0.0001 µM the inhibition was 64%. With `Cc1ccc(C(=O)N2CC[C@@H](NC(=O)NCCC(c3ccccc3)c3ccccc3)C2)cn1` [Example 31, N-(3,3-diphenylpropyl)-N'-{(3R)-1-[(6-methyl-3-pyridinyl)carbonyl]-3-pyrrolidinyl}urea], 0.0001 µM produced 79% inhibition. On the same count and under the same terms, in the case of `Cc1ccc(C(=O)N2CC[C@@H](NC(=O)N[C@@H](CO)c3ccccc3)C2)cn1` [Example 32, N-[(1R)-2-hydroxy-1-phenylethyl]-N'-{(3R)-1-[(6-methyl-3-pyridinyl)carbonyl]-3-pyrrolidinyl} urea] it was 85%; in that of `Cc1ccc(C(=O)N2CC[C@@H](NC(=O)N[C@@H](C)c3ccccc3)C2)cn1` [Example 33, N-((3R)-1-[(6-methylpyridin-3-yl)carbonyl]pyrrolidin-3-yl)-N'-[(1S)-1-phenylethyl]urea], 85%; in that of `COCCN(C(=O)N[C@@H]1CCN(C(=O)c2ccc(C)nc2Cl)C1)C(C)C` [Example 35, N'-{(3R)-1-[(2-chloro-6-methylpyridin-3-yl)carbonyl]pyrrolidin-3-yl}-N-isopropyl-N-(2-methoxyethyl)urea], 70%. Molecule `CCOCCCNC(=O)N[C@@H]1CCN(C(=O)c2ccc(C)nc2Cl)C1` [Example 38, N-{(3R)-1-[(2-chloro-6-methylpyridin-3-yl)carbonyl]pyrrolidin-3-yl}-N'-(3-ethoxypropyl)urea] gave an inhibition at 0.0001 µM of 99%.

As for `Cc1ccc(C(=O)N2CC[C@@H](NC(=O)NCCCOCC(C)C)C2)c(Cl)n1` [Example 40, N-{(3R)-1-[(2-chloro-6-methylpyridin-3-yl)carbonyl]pyrrolidin-3-yl}-N'-(3-isobutoxypropyl)urea], 0.0001 µM produced 72% inhibition. `CSCCCNC(=O)N[C@@H]1CCN(C(=O)c2ccc(C)nc2Cl)C1` [Example 41, N-{(3R)-1-[(2-chloro-6-methylpyridin-3-yl)carbonyl]pyrrolidin-3-yl}-N'-[3-(methylthio)propyl]urea] displayed an inhibition at 0.0001 µM of 87%. On the same count and under the same terms, in the case of `Cc1ccc(C(=O)N2CC[C@@H](NC(=O)N(Cc3ccccc3)Cc3ccccc3)C2)c(Cl)n1` [Example 43, N,N-dibenzyl-N'-{(3R)-1-[(2-chloro-6-methylpyridin-3-yl)carbonyl]pyrrolidin-3-yl}urea] it was 73%; in that of `Cc1ccc(C(=O)N2CC[C@@H](NC(=O)N(C)CCc3ccccc3)C2)c(Cl)n1` [Example 44, N'-{(3R)-1-[(2-chloro-6-methylpyridin-3-yl)carbonyl]pyrrolidin-3-yl}-N-methyl-N-(2-phenylethyl)urea], 80%. In turn, `COc1ccc(CCN(C)C(=O)N[C@@H]2CCN(C(=O)c3ccc(C)nc3Cl)C2)cc1OC` [Example 45, N'-{(3R)-1-[(2-chloro-6-methylpyridin-3-yl)carbonyl]pyrrolidin-3-yl}-N-[2-(3,4-dimethoxyphenyl)ethyl]-N-methylurea] gave an inhibition at 0.0001 µM of 82%.

In turn, `Cc1ccc(C(=O)N2CC[C@@H](NC(=O)N3CCC(Cc4ccccc4)CC3)C2)c(Cl)n1` [Example 46, 4-benzyl-N-{(3R)-1-[(2-chloro-6-methylpyridin-3-yl)carbonyl]pyrrolidin-3-yl}piperidine-1-carboxamide] yielded an inhibition at 0.0001 µM of 99%.

`CCN(CC)CCN(C)C(=O)N[C@@H]1CCN(C(=O)c2ccc(C)nc2)C1` [Example 49, N-[2-(diethylamino)ethyl]-N-methyl-N'-{(3R)-1-[(6-methylpyridin-3-yl)carbonyl]pyrrolidin-3-yl}urea]: the inhibition at 0.0001 µM was found to be 65%. The same measure, in the same setting: in the case of `CCN(Cc1ccccc1)C(=O)N[C@@H]1CCN(C(=O)c2ccc(C)nc2)C1` [Example 50, N-benzyl-N-ethyl-N'-{(3R)-1-[(6-methylpyridin-3-yl)carbonyl]pyrrolidin-3-yl} urea] it was 76%; in that of `Cc1ccc(C(=O)N2CC[C@@H](NC(=O)N(Cc3ccccc3)Cc3ccccc3)C2)cn1` [Example 53, N,N-dibenzyl-N'-{(3R)-1-[(6-methylpyridin-3-yl)carbonyl]pyrrolidin-3-yl} urea], 78%; in that of `Cc1ccc(C(=O)N2CC[C@@H](NC(=O)N3CCC(n4c(=O)[nH]c5ccccc54)CC3)C2)cn1` [Example 56, N-{(3R)-1-[(6-methylpyridin-3-yl)carbonyl]pyrrolidin-3-yl}-4-(2-oxo-2,3-dihydro-1H-benzimidazol-1-yl)piperidine-1-carboxamide], 86%. Still for that read-out and setting: for `CCN1CCN(C(=O)N[C@@H]2CCN(C(=O)c3ccc(C)nc3)C2)CC1` [Example 57, 4-ethyl-N-{(3R)-1-[(6-methylpyridin-3-yl)carbonyl]pyrrolidin-3-yl}piperazine-1-carboxamide] the value was 86%; for `Cc1ccc(C(=O)N2CC[C@@H](NC(=O)N3CCN(Cc4ccccc4)CC3)C2)cn1` [Example 58, 4-benzyl-N-{(3R)-1-[(6-methylpyridin-3-yl)carbonyl]pyrrolidin-3-yl}piperazine-1-carboxamide], 71%. Regarding `CCCN(C)C(=O)N[C@@H]1CCN(C(=O)c2ccc(C)nc2)C1` [Example 59, N-methyl-N'-{(3R)-1-[(6-methylpyridin-3-yl)carbonyl]pyrrolidin-3-yl}-N-propylurea], the inhibition at 0.0001 µM stood at 93%. For the molecule `Cc1ccc(C(=O)N2CC[C@@H](NC(=O)N(C)CC(C)C)C2)cn1` [Example 60, N-isobutyl-N-methyl-N'-{(3R)-1-[(6-methylpyridin-3-yl)carbonyl]pyrrolidin-3-yl}urea], testing at 0.0001 µM gave an inhibition of 67%.

The same experiment, now with this note: Homo sapiens; Inhibition of HMVEC migration; 1 nM; activators 15 ng/mL bFGF/VEGF; 4 hours at 37 °C; compared to a positive control.
`CCCCN(CCCC)C(=O)N[C@@H]1CCN(C(=O)c2ccc(C)nc2Cl)C1` [Example 34, N,N-dibutyl-N'-{(3R)-1-[(2-chloro-6-methylpyridin-3-yl)carbonyl]pyrrolidin-3-yl}urea] had an inhibition at 0.001 µM of 50%. The same measure, in the same setting: for `Cc1ccc(C(=O)N2CC[C@@H](NC(=O)NCCCOC(C)C)C2)c(Cl)n1` [Example 39, N-{(3R)-1-[(2-chloro-6-methylpyridin-3-yl)carbonyl]pyrrolidin-3-yl}-N'-(3-isopropoxypropyl)urea] the value was 72%; for `Cc1ccc(C(=O)N2CC[C@@H](NC(=O)N3CCC(n4c(=O)[nH]c5ccccc54)CC3)C2)c(Cl)n1` [Example 47, N-{(3R)-1-[(2-chloro-6-methylpyridin-3-yl)carbonyl]pyrrolidin-3-yl}-4-(2-oxo-2,3-dihydro-1H-benzimidazol-1-yl)piperidine-1-carboxanude], 80%. For the molecule `Cc1ccc(C(=O)N2CC[C@@H](NC(=O)N3CCN(c4ccccc4)CC3)C2)c(Cl)n1` [Example 48, N-{(3R)-1-[(2-chloro-6-methylpyridin-3-yl)carbonyl]pyrrolidin-3-yl}-4-phenylpiperazine-1-carboxamide], the inhibition at 0.001 µM was 78%. Still for that read-out and setting: in the case of `Cc1ccc(C(=O)N2CC[C@@H](NC(=O)N(Cc3ccccc3)C(C)C)C2)cn1` [Example 51, N-benzyl-N-isopropyl-N'-{(3R)-1-[(6-methylpyridin-3-yl)carbonyl]pyrrolidin-3-yl}urea] it was 60%; in that of `CCCCN(Cc1ccccc1)C(=O)N[C@@H]1CCN(C(=O)c2ccc(C)nc2)C1` [Example 52, N-benzyl-N-butyl-N'-{(3R)-1-[(6-methylpyridin-3-yl)carbonyl]pyrrolidin-3-yl}urea], 80%; in that of `Cc1ccc(C(=O)N2CC[C@@H](NC(=O)N(CCc3ccccc3)Cc3ccccc3)C2)cn1` [Example 54, N-benzyl-N'-{(3R)-1-[(6-methylpyridin-3-yl)carbonyl]pyrrolidin-3-yl}-N-(2-phenylethyl)urea], 78%. The same measure, in the same setting: in the case of `CCN(CC)C(=O)C1CCCN(C(=O)N[C@@H]2CCN(C(=O)c3ccc(C)nc3)C2)C1` (stereo partly drawn) [Example 55, N^3,N^3-diethyl-N^1-{(3R)-1-[(6-methylpyridin-3-yl)carbonyl]pyrrolidin-3-yl}piperidine-1,3-dicarboxamide] it was 93%.

Still in this experiment, the particulars now being: Inhibition of HMVEC migration; 0.1 nM; activators 15 ng/mL bFGF/VEGF; 4 hours at 37 °C; compared to a positive control.
For `Cc1ccc(C(=O)N2CC[C@@H](NC(=O)N[C@@H](CO)c3ccccc3)C2)c(Cl)n1` [Example 37, N-{(3R)-1-[(2-chloro-6-methylpyridin-3-yl)carbonyl]pynolidin-3-yl}-N'-[(1R)-2-hydroxy-1-phenylethyl]urea], the “% Inhibition @ 0.1 nM” value worked out at 73%.

(Values after patent EP1680415B1, “PYRROLIDINYL UREA DERIVATIVES AS ANGIOGENESIS INHIBITORS” (ABBOTT LABORATORIES, priority 2003, dated 2005).)
